Each structure is given as a SMILES string.

The nature of the data set: gradient 5% acetonitrile 3 min, to 50% in 2 min, to 85% in 15 min, held 3 min, 100 µL/min. Conditions: column: Zorbax Extend-C18 2.1 x 50 mm; eluents: water / acetonitrile, 0.1% formic acid. The method, boiled down:
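Over 3 months, pure standards in mixtures of ~100 molecules were run by HPLC coupled to a quadrupole time-of-flight mass spectrometer in positive and negative ionization mode. The column was a Zorbax Extend-C18 (2.1 × 50 mm, 1.8 μm) at 100 μL/min, eluted with water and acetonitrile each holding 0.1% formic acid, with 40 μL dead and 900 μL dwell volumes. Retention time was determined from adduct peaks chosen by software and checked manually.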
On to `COc1ccc(NC(=O)C2(C)Oc3cccnc3N(C(C)C)C2=O)c(OC)c1` (centres undefined), for which the RP-LC retention time came out at 1010 s. With `CCc1nc2cc(-c3noc(C4CC(=O)N(c5ccc(C)cc5)C4)n3)ccc2o1` (centres undefined) the figure was 987 s; with `Cc1nnc2ccc(NC(=O)Nc3cccc(F)c3)cn12`, 677 s.

For the molecule `CCOc1ccc(CN2CCC3(CC2)CC(O)CCO3)cc1OC` (centres undefined), the RP-LC retention time worked out at 583 s. With `CC(C)NC(=O)C1(c2ccc(NS(C)(=O)=O)cc2)CCCCC1` the figure was 782 s. Take `O=C(Nc1cccc(F)c1)C1CCCN(c2nc3ccsc3c(=O)n2Cc2ccc(F)cc2)C1` (centres undefined): the RP-LC retention time turned out to be 1050 s. With `COC(=O)c1ccc2c(=O)n(-c3ccccc3)c(N3CCCC3)nc2c1` the figure was 908 s. With `COc1ccc(CCNC(=O)N2CCC(c3nnc(C(F)(F)F)o3)CC2)cc1` the figure was 764 s. With `Cc1ccc(CNC(=O)Cn2c(C)nc3onc(C)c3c2=O)cc1` the figure was 764 s; with `O=C(Nc1nc2ccccc2[nH]1)c1cccc(Cl)c1`, 703 s. `COc1cc2c(cc1OC)C(C(=O)NCCCN1CCOCC1)C(c1cccs1)N(C)C2=O` (centres undefined): the RP-LC retention time turned out to be 596 s. With `Cc1ccc(N2CCC(NC(=O)C3CCCC3)C2=O)cc1` (centres undefined) the figure was 762 s.

`COc1cccc(NC(=O)Cn2nc3c(Oc4cccc(Cl)c4)nccn3c2=O)c1` registered an RP-LC retention time of 858 s.

For `COc1ccccc1-n1nnc(C(=O)OCc2nc(-c3ccccc3)oc2C)c1C`, the RP-LC retention time was 972 s.

`CCc1nc(NCc2ccc(OC)c(OC)c2)ncc1C(=O)O`: the RP-LC retention time was 682 s. On to `COc1ccc(CC(=O)NC2CCN(c3cc(-c4ccc(Cl)cc4)[nH]n3)C2)cc1OC` (centres undefined), for which the RP-LC retention time was 728 s. With `CNC(=O)c1cnc(-c2ccc(Cl)cc2)n(CC(=O)N2CCc3ccccc32)c1=O` the figure was 997 s; with `CN(C)CC/C=C1/c2ccccc2COc2ccccc21`, 760 s; with `CC(NC(=O)c1ccc(C#N)cc1)C(=O)N1CCCc2ccccc21` (centres undefined), 818 s.

In the case of `CN1C(=O)C2CCCCN2c2ccc(C(=O)NCCc3cccs3)cc21` (centres undefined), the RP-LC retention time stood at 872 s.

`Clc1ccc(Nc2nc3ccccc3c3nc(C4CCCCC4)[nH]c23)cc1Cl` registered an RP-LC retention time of 1130 s. With `CC(=O)Nc1ccc(CCc2nc3ccc(C(=O)NC(C)C)cc3[nH]2)cc1` the figure was 574 s; with `Cn1cc(C(=O)NCc2ccc(N3CCCCC3)cc2)c2cccnc21`, 576 s; with `COC(=O)c1ccccc1NCCO`, 787 s. With `O=C(Cc1cccs1)N1CCN(c2ccc(-c3noc(C4CC4)n3)cc2)CC1` the figure was 934 s; with `O=C(C1CCCN(c2cnc3nccnc3c2)C1)N1CCN(C2CCCCC2)CC1` (centres undefined), 567 s; with `Cc1cc(C)cc(NC(=O)Cn2c(=O)n(-c3cccc(C)c3)c(=O)c3c2cc(C)n3C)c1`, 882 s. With `COCCc1noc(C2CN(C(=O)c3cn(C)cn3)C2)n1` the figure was 555 s; with `Cc1ccccc1NC(=O)Cn1nc2cc(-c3ccccn3)nc(C)n2c1=O`, 746 s. The molecule `CCOC(=O)c1sc(NC(=O)c2ccc([N+](=O)[O-])cc2)nc1-c1ccccc1` yielded an RP-LC retention time of 1140 s. With `COc1ccccc1N1CCN(S(=O)(=O)c2cc(-c3nc(C(C)C)cs3)cs2)CC1` the figure was 1300 s; with `Cc1nc(C2(C)CCN(S(=O)(=O)c3c(C)c(C)cc(C)c3C)CC2)no1`, 1140 s. With `CC(Oc1ccc(C(C)(C)C)cc1)C(=O)N(Cc1ccco1)C1CCS(=O)(=O)C1` (centres undefined) the figure was 1050 s. With `Cc1ccc(-c2nnc(-c3nn(C)c4c3CN(S(=O)(=O)c3ccc(Cl)s3)CC4)o2)cc1` the figure was 1060 s; with `CN1CCn2cc(S(=O)(=O)Nc3ccc(Cl)cc3F)cc2C1=O`, 723 s; with `COc1ccccc1NC(=O)CSCC(=O)N1CCC(C(N)=O)CC1`, 619 s.

`COc1ccc(OC)c(-c2[nH]ncc2CN2CC(F)(F)C[C@H]2CN2CCOCC2)c1`: the RP-LC retention time was determined as 606 s. With `O=C(Nc1ccc2ncnc(N3CCCC3)c2c1)c1cncc(Br)c1` the figure was 639 s; with `CCCOC(=O)c1cccc(Nc2nc(C(=O)OCC)nc3ccccc23)c1`, 955 s. With `Cc1nc2cc(-c3noc(/C=C/c4ccccc4)n3)ccc2o1` the figure was 1140 s. With `CC(C)OCCCNC(=O)C1CCN(S(=O)(=O)c2ccc3c(c2)CCCC(=O)N3)CC1` the figure was 674 s.

Take `COc1ccc(N2C(=O)CN(C(C)c3ccccc3)[C@H]3CS(=O)(=O)C[C@H]32)cc1` (some centres undefined): the RP-LC retention time is 808 s.

For `Cc1nn(C2CCS(=O)(=O)C2)c(C)c1N1CCN(C(=O)c2cc3ccccc3[nH]2)CC1` (centres undefined), the RP-LC retention time was determined as 747 s. On to `O=C(Cn1c(=O)c(S(=O)(=O)c2ccccc2)cc2ccccc21)N1CCCC1`, for which the RP-LC retention time came out at 757 s. With `NS(=O)(=O)c1ccc(NC(=O)C2(c3cc(-c4ccco4)on3)CC2)cc1` the figure was 745 s. With `Cc1ccc(-c2ccc(N3CCCC(C(=O)N4CCC5(CC4)OCCO5)C3)nn2)cc1C` (centres undefined) the figure was 684 s. With `CCC(=O)NCc1nc2c(n1CC)CN(C(=O)c1cccc(C(F)(F)F)c1)CC2` the figure was 603 s; with `COc1cccc(N2CCN(c3ccnc(SCC(=O)NCCC4=CCCCC4)n3)CC2)c1`, 862 s; with `CC(C)(C)c1noc(-c2cccn3c(CC(=O)NC4CCCCC4)nnc23)n1`, 754 s. Molecule `CC(=O)c1ccc(-n2ccc3c(cnc4c(-c5ccccc5)c(C)nn43)c2=O)cc1` yielded an RP-LC retention time of 969 s. With `O=C(Cc1ccsc1)NCCC1CCN(C(=O)Nc2cc(F)ccc2F)CC1` the figure was 915 s; with `Nc1nc(NCc2ccccc2Cl)ncc1[N+](=O)[O-]`, 778 s. With `Cc1cccc(Oc2nccnc2Sc2ccccc2C(=O)N2CCN(c3ccccn3)CC2)c1` the figure was 761 s.

`Cc1cc(=O)n(CC(=O)N2CCCc3ccccc32)c(N2CCOCC2)n1` gave an RP-LC retention time of 687 s. As to `COc1cccc(-c2noc(Cn3ccn(-c4ccccc4OC)c(=O)c3=O)n2)c1`, the RP-LC retention time is 810 s.

`CC(C)(C)NC(=O)N1CCN(c2cc(-c3cccc(F)c3)ncn2)CC1` returned an RP-LC retention time of 669 s. On to `Cc1ccc(C)c(-c2cc3c(=O)n(Cc4noc(-c5ccccn5)n4)ccn3n2)c1`, for which the RP-LC retention time worked out at 923 s.

For the molecule `CCN1C(=O)COc2ccc(-c3csc(NC(=O)c4ccccc4Br)n3)cc21`, the RP-LC retention time was 980 s. With `COc1ccc(-c2nc(-c3ccc4oc(C)nc4c3)no2)c(OC)c1` the figure was 976 s; with `O=C1[C@H]2CN(Cc3cccc(OC(F)(F)F)c3)C[C@H]2C(=O)N1Cc1ccc2c(c1)OCO2`, 969 s. With `O=C(NCCN1CCc2ccccc2C1)c1cn2nc(Cl)ccc2n1` the figure was 618 s; with `O=C(CSc1ccc(F)cc1)Nc1ccc2c(c1)N(C(=O)c1ccccc1)CCC2`, 874 s.

In turn, `CN(C)CCN(C(=O)CCc1ccccc1)c1nc2ccc(F)cc2s1` came in with an RP-LC retention time of 773 s.

Turning to `CCc1ccc2occ(CC(=O)N(Cc3ccc(N(C)C)cc3)C3CCS(=O)(=O)C3)c2c1` (centres undefined), the RP-LC retention time was 868 s.

With `CCCc1nc2cccnc2n1C1CCN(C(=O)c2ccc(N3CCCC3=O)cc2)C1` (centres undefined), the RP-LC retention time amounted to 579 s. With `CCN1C(=O)C2(CCN(S(=O)(=O)Cc3ccccc3)CC2)c2ccccc21` the figure was 976 s. With `COc1cccc(-n2c(=O)c3sccc3n(Cc3nc(-c4ccc(Cl)c(F)c4)no3)c2=O)c1` the figure was 1060 s.

In turn, `Cc1noc(COC2CCN(C(=O)NCCc3ccccc3)CC2)n1` displayed an RP-LC retention time of 694 s. Regarding `COCC1(O)CCOC2(CCN(Cc3ccc(C)cc3)CC2)C1` (centres undefined), the RP-LC retention time worked out at 556 s.

In the case of `COc1cccc(NC(=O)Cn2nc3c(N(C)C4CCCCC4)nccn3c2=O)c1`, the RP-LC retention time turned out to be 745 s. With `Cc1csc(-c2cc(S(=O)(=O)Nc3cccc(Cl)c3)c(C)s2)n1` the figure was 1060 s; with `CCCN(CC1CCOC1)C(=O)Nc1cc(F)c(F)c(F)c1` (centres undefined), 844 s; with `CCOC(=O)c1[nH]c(C)c(C(=O)C(C)N(Cc2ccc(F)cc2)C(=O)C(C)C)c1C` (centres undefined), 950 s. With `CCn1c(=O)c(C(=O)NCc2ccc(F)cc2F)nc2cccnc21` the figure was 816 s. With `O=C(NCc1cccnc1)C1(c2ccc(F)cc2)CC1` the figure was 568 s. With `CCc1ccc(-n2ncc3c(=O)n(Cc4nc(-c5ccc(SC)cc5)no4)cnc32)cc1`, the RP-LC retention time was 1210 s. Molecule `Cc1cc(CC(=O)N2CCCn3ccnc3C2C2CCCC2)on1` (centres undefined) gave an RP-LC retention time of 587 s.

On to `CCc1cccc(NC(=O)Cc2nc(C)c(C(=O)NCC(C)C)s2)c1`, for which the RP-LC retention time turned out to be 886 s. As for `Cn1c(N2CCN(S(=O)(=O)c3ccc(Cl)s3)CC2)nc2ccccc21`, the RP-LC retention time was 614 s.

The values above are taken from the METLIN SMRT retention time set (Domingo-Almenara et al. 2019).
